{"source": "patent US8772348B2", "about": "“Materials and methods for pest control” (priority 2009, dated 2014)", "key": {"Aedes aegypti [1]": {"tested_on": "Aedes aegypti", "settings": "for LC50: On camouflage military fabric", "protocol": "The mortality rate is measured after a 2-hour, 4-hour and 24-hour exposure period. Ataxic mosquitoes are considered dead.\nThe ability of Ae. aegypti to recover from insecticidal exposure is also investigated. After a 2-hour exposure, each set of Ae. aegypti is transferred into a separate jar. The mortality rate is measured at two time intervals: first, immediately at the transfer (2 hours after the initial exposure), and second, 22 hours after the transfer (24 hours after the initial exposure).\nThe mortality rate and the LC values are determined using the same procedures as is illustrated in Example 2."}, "[2]": {"tested_on": "honey bees, Apis mellifera", "test": "Olfactory response assay in MEDUSA olfactometer, honey bee behaviors", "format": "in vivo", "settings": "0.25 mg semiochemical on perfumery strips; F7.72=0.705, p=0.67; data not shown"}, "[3]": {"tested_on": "Susceptible Musca domestica", "settings": "for % mortality on various days following treatment: formulation on filter paper at LC99-based concentration of each compound", "protocol": "Briefly, after Musca domestica is exposed to formulations for 24 hours at the LC99 concentration specific for each compound, each set of flies is transferred into a separate glass jar, and held for another 24 hours when mortality is scored. The mortality rate is measured on multiple days with new sets of flies up to 14 days (Day 1 starts at 24 hours after the transfer). The mortality rate is determined using the same procedures as is illustrated in Example 2.\nConcentrations were generated from technical-based LC99 values obtained following a 24 h-exposure period on filter paper. Paper was treated on day 0 and was held until exposure on post-treatment day. Control contained formulation ingredients without semiochemicals."}, "Aedes aegypti [4]": {"tested_on": "Aedes aegypti", "settings": "for % mortality on various days following treatment: formulation on military fabric at LC99-based concentration, 2 h exposure, mortality 24 h after initial exposure", "protocol": "Briefly, after mosquitoes are exposed to formulations for 2 hours at a concentration of LC99, each set is transferred into a separate glass jar, and held for another 24 hours. The mortality rate is measured with new mosquitoes on post-treatment days 2, 3, 5, 8 and 14 (Day 1 starts at 24 hours after the transfer), and is determined using the same procedures as are illustrated in Example 2.\nConcentrations were generated from technical-based LC99 values obtained from a 2 h exposure period on military fabric. Fabric was treated on day 0 and was held until exposure on post-treatment day. Mosquitoes were exposed for 2 h, and mortality rate was assessed 24 h after initial exposure. Control contained formulation ingredients without semiochemicals."}, "[5]": {"tested_on": "Anopheles quadrimaculatus", "settings": "for mortality at the 24-hour examination: 24-hour exposure", "source_text": "(§1) Briefly, Anopheles quadrimaculatus (Say) is obtained from the United States Department of Agriculture, ARS, Center for Medical, Agricultural and Veterinary Entomology, Gainesville, Fla., and adults are held in the laboratory of the Entomology and Nematology Department, University of Florida with no insecticide exposure or introduction of other insects. The Asian tiger mosquito, Ae. albopictus (Skuse) is obtained from a laboratory colony of the Entomology and Nematology Department, University of Florida.\n(§2) Each strain is divided into four sets: three sets as the experiment and the other set as the control. […] The mortality rate is measured after a 2-hour, 4-hour, and 24-hour exposure period. Ataxic mosquitoes are considered dead. The mortality rate and the LC values are determined using the same procedures as is illustrated in Example 2."}, "Aedes albopictus": {"tested_on": "Aedes albopictus", "settings": "for mortality at the 24-hour examination: 24-hour exposure", "source_text": "as §1, §2"}, "Stomoxys calcitrans": {"tested_on": "Stomoxys calcitrans", "protocol": "Briefly, one Stomoxys calcitrans strain is collected from the University of Florida dairy unit in Alachua County, Florida, U.S.A. (“the Alachua strain”) and subsequently reared at 27° C. in the laboratory of the Entomology and Nematology Department, University of Florida.\nEach strain is divided into four sets: three sets as the experimental treatments and the other set as the control. […] The control set is not exposed to any chemical compound. The mortality rate is measured after a 2-hour, 4-hour, and 24-hour period. Ataxic flies are considered dead. The mortality rate and the LC values are determined using the same procedures as is illustrated in Example 2."}, "Aedes aegypti [6]": {"tested_on": "Aedes aegypti", "settings": "EC formulation on military fabric", "protocol": "A commercially-available permethrin 57 g L^−1 EC (Ectiban EC 57; Universal Cooperatives, Minneapolis, Minn.) was included for comparison. Except rosalva, the 50% EC semiochemical formulations were generated by combining 500 mL AI, 430 mL canola oil (Publix, Lakeland, Fla.), 10 mL xylene, 50 mL Triton X-100 (Acros Organics Nev., Fair Lawn, N.J.) and 10 mL Agsolex-8 (International Specialty Products, Wayne, N.J.). The rosalva formulation contained all of the above-mentioned ingredients, with canola oil concentration reduced to 400 mL L^−1, Triton X-100 concentration increased to 75 mL L^−1, and 5 mL L^−1 Antifoam B silicone emulsion (Mallinckrodt Baker, Phillipsburg, N.Y.) included.\nBriefly, a piece of 10×10 cm^2 fabric (TenCate Defender™) is impregnated with 2 ml of serially diluted 20-emulsifiable concentrate or 50-emulsifiable concentrate formulations, respectively, and subsequently dried for about an hour. Also, six-to-ten-day-old, never blood-fed, adult female Ae. aegypti mosquitoes are obtained. The mosquitoes are divided into seven sets: three sets as the experiment, three sets as the positive control, and one set as the negative control. Each set consists of 20 mosquitoes. […] The positive control set is exposed to fabric pieces treated with geranyl acetone, rosalva or citronellol. The negative control set is exposed to fabric pieces treated with acetone solution. Throughout the exposure periods, each set is provided with 10% sucrose solution and sufficient air circulation. Ataxic mosquitoes are considered dead. The mortality rate and the LC values are determined using the same procedures as are illustrated in Example 2."}}, "note": "Where two headings read alike, the source gives them in different places."}
{"smiles": "CC1(C)CCCC2=C1CC(C=O)CC2", "note": "(stereo not shown) [Cyclemone A, 2-naphthaldehyde, 1,2,3,4,5,6,7,8-octahydro-8,8-dimethyl]", "values": [{"measurement": "LC50", "setting": "Aedes aegypti [1]; 2 h constant exposure", "value": 26.03, "unit": "μg cm^−2"}, {"measurement": "LC50", "setting": "Aedes aegypti [1]; 2 h exposure then transferred, mortality 24 h after initial exposure", "value": 41.13, "unit": "μg cm^−2"}, {"measurement": "LC50", "setting": "Aedes aegypti [1]; 4 h constant exposure", "value": 17.23, "unit": "μg cm^−2"}, {"measurement": "mortality rate", "setting": "Aedes aegypti [1]; camouflage military fabric, after a 24-hour exposure", "value": "~100", "unit": "%"}, {"measurement": "attraction or repellence of honey bees (contact seconds per hour)", "setting": "[2]", "value": "do not attract or repel honey bees"}, {"measurement": "mortality rate", "setting": "[3]; Day 1 and Day 2", "value": 99, "unit": "%"}, {"measurement": "% mortality on various days following treatment", "setting": "[3]; day 1", "value": 96.25, "unit": "a %"}, {"measurement": "% mortality on various days following treatment", "setting": "[3]; day 2", "value": 90.00, "unit": "a %"}, {"measurement": "% mortality on various days following treatment", "setting": "[3]; day 3", "value": 80.00, "unit": "a %"}, {"measurement": "% mortality on various days following treatment", "setting": "[3]; day 5", "value": 77.50, "unit": "ab %"}, {"measurement": "% mortality on various days following treatment", "setting": "[3]; day 7", "value": 78.75, "unit": "a %"}, {"measurement": "% mortality on various days following treatment", "setting": "[3]; day 8", "value": 63.75, "unit": "a %"}, {"measurement": "% mortality on various days following treatment", "setting": "[3]; day 14", "value": 6.25, "unit": "ab %"}, {"measurement": "% mortality on various days following treatment", "setting": "Aedes aegypti [4]; day 1", "value": 100.00, "unit": "a %"}, {"measurement": "% mortality on various days following treatment", "setting": "Aedes aegypti [4]; day 2", "value": 97.50, "unit": "a %"}, {"measurement": "% mortality on various days following treatment", "setting": "Aedes aegypti [4]; day 3", "value": 92.50, "unit": "a %"}, {"measurement": "% mortality on various days following treatment", "setting": "Aedes aegypti [4]; day 5", "value": 75.00, "unit": "a %"}, {"measurement": "% mortality on various days following treatment", "setting": "Aedes aegypti [4]; day 8", "value": 25.50, "unit": "ab %"}, {"measurement": "% mortality on various days following treatment", "setting": "Aedes aegypti [4]; day 14", "value": 17.50, "unit": "a %"}, {"measurement": "mortality at the 24-hour examination", "setting": "[5]", "value": "All mosquitoes were dead"}, {"measurement": "LC50", "setting": "[5]; 2 h constant exposure", "value": 14.29, "unit": "μg cm^−2"}, {"measurement": "LC50", "setting": "[5]; 4 h constant exposure", "value": 12.27, "unit": "μg cm^−2"}, {"measurement": "mortality at the 24-hour examination", "setting": "Aedes albopictus", "value": "All mosquitoes were dead"}, {"measurement": "LC50", "setting": "Aedes albopictus; 2 h constant exposure", "value": 19.88, "unit": "μg cm^−2"}, {"measurement": "LC50", "setting": "Aedes albopictus; 4 h constant exposure", "value": 18.72, "unit": "μg cm^−2"}, {"measurement": "LC50", "setting": "Stomoxys calcitrans; 2 h constant exposure", "value": 19.52, "unit": "μg cm^−2"}, {"measurement": "LC90", "setting": "Stomoxys calcitrans; 2 h constant exposure", "value": 31.31, "unit": "μg cm^−2"}, {"measurement": "LC50", "setting": "Stomoxys calcitrans; 4 h constant exposure", "value": 18.18, "unit": "μg cm^−2"}, {"measurement": "LC90", "setting": "Stomoxys calcitrans; 4 h constant exposure", "value": 32.38, "unit": "μg cm^−2"}, {"measurement": "LC50", "setting": "Stomoxys calcitrans; 24 h constant exposure", "value": 14.82, "unit": "μg cm^−2"}, {"measurement": "LC90", "setting": "Stomoxys calcitrans; 24 h constant exposure", "value": 27.10, "unit": "μg cm^−2"}, {"measurement": "LC50", "setting": "Aedes aegypti [6]; exposure period 2 hours", "value": 180.23, "unit": "μg cm^−2"}, {"measurement": "LC90", "setting": "Aedes aegypti [6]; exposure period 2 hours", "value": 452.11, "unit": "μg cm^−2"}, {"measurement": "LC50", "setting": "Aedes aegypti [6]; exposure period 4 hours", "value": 172.56, "unit": "μg cm^−2"}, {"measurement": "LC90", "setting": "Aedes aegypti [6]; exposure period 4 hours", "value": 488.13, "unit": "μg cm^−2"}, {"measurement": "LC50", "setting": "Aedes aegypti [6]; exposure period 24 hours", "value": 136.19, "unit": "μg cm^−2"}, {"measurement": "LC90", "setting": "Aedes aegypti [6]; exposure period 24 hours", "value": 330.22, "unit": "μg cm^−2"}]}
{"smiles": "C/C=C/C(=O)C1=C(C)CCCC1(C)C", "note": "[Beta damascone, beta damascone]", "values": [{"measurement": "mortality rate", "setting": "Aedes aegypti [1]; in vivo", "value": "~100", "unit": "%"}, {"measurement": "attraction or repellence of honey bees (contact seconds per hour)", "setting": "[2]", "value": "do not attract or repel honey bees"}, {"measurement": "mortality rate", "setting": "[3]; in vivo", "value": 99, "unit": "%"}, {"measurement": "mortality rate", "setting": "Aedes aegypti [4]; in vivo", "value": "above 90%"}, {"measurement": "mortality at the 24-hour examination", "setting": "[5]", "value": "All mosquitoes were dead"}, {"measurement": "mortality at the 24-hour examination", "setting": "Aedes albopictus", "value": "All mosquitoes were dead"}, {"measurement": "LC90", "setting": "Stomoxys calcitrans; 2 h constant exposure", "value": 34.57, "unit": "μg cm^−2"}, {"measurement": "LC90", "setting": "Stomoxys calcitrans; 4 h constant exposure", "value": 29.68, "unit": "μg cm^−2"}, {"measurement": "LC90", "setting": "Stomoxys calcitrans; 24 h constant exposure", "value": 20.33, "unit": "μg cm^−2"}, {"measurement": "LC90", "setting": "Aedes aegypti [6]; exposure period 2 hours", "value": 910.52, "unit": "μg cm^−2"}, {"measurement": "LC90", "setting": "Aedes aegypti [6]; exposure period 4 hours", "value": 648.16, "unit": "μg cm^−2"}, {"measurement": "LC90", "setting": "Aedes aegypti [6]; exposure period 24 hours", "value": 534.26, "unit": "μg cm^−2"}]}
